assay: Flash point of solvents; type: physicochemical; details: measured with Cleveland open cup tester or value from 15509 chemical products
Text: A flash point was a measured value (with a Cleveland open cup flashpoint tester or a value described in “15509 no Kagaku Seihin (15509 chemical products)” (2009, Jan., 27, Chemical Daily Co., Ltd.). Among solvents used in Comparative Examples, for those having a structure corresponding to the formula (C1), meanings of items in the formula (C1) were shown for convenience.

Structure (SMILES) | Flash point [°C]
CCCCC(CC)CO (stereo not drawn) [2-ethyl-l-hexanol] | 78
COCCOCCOC [Diethylene glycol dimethyl ether] | 56
CCCCC(CC)COCCOCCO (stereo not drawn) [Diethylene glycol mono2-ethylhexyl ether] | 151
OCCOCCO [Diethylene glycol] | 138
CCCCOCCOCCOCCCC [Diethyleneglycol dibutyl ether] | 122
C[S+](C)[O-] [Dimethylsulfoxide] | 95
CCOCCOCCO [Ethyl carbitol] | 102
OCCO [Ethylene glycol] | 120
CC(C)CO [Isobutanol] | 28
CC(C)O [Isopropanol] | 12
COCCOCCO [Methyl carbitol] | 105
COCCO [Methyl cellosolve] | 39
COCC(C)O (stereo not drawn) [Propylene glycol monomethyl ether] | 32
CC(O)CO (stereo not drawn) [Propylene glycol] | 99
CCCCOCCOCCO [n-Butyl carbitol] | 120

From US9060514B2, “Efficacy-enhancing agent composition for agricultural chemicals” (priority 2010, dated 2015)
